Patent publication US6399649B1, “Compositions and methods for the treatment of chronic lymphocytic leukemia” (Boston Medical Center Corporation, priority 1998, dated 2002)

Assays:
PDE-4B transcript = test: Northern analysis of PDE-4B transcript in cultured CLL cells; type: cell-based, human; conditions: 10 uMol/L, six hour culture period
Protocol: RNA was isolated from CLL or whole mononuclear cells using Ultraspec reagent (Biotecx, Houston, Tex.). cDNA was synthesized from 10 ug of total RNA using oligo d(T) primers and Maloney murine leukemia virus reverse transcriptase in a final volume of 40 uL (Stratagene, La Jolla, Calif.). One mL of the first strand cDNA product was then used as template for PCR amplification with AmpliTaq DNA polymerase (Roche Molecular Systems, Branchburg, N.J.) by 40 thermocycles of 94° C. for 1 minute, 600° C. for 1 minute and 72° C. for 1 minute. […] For hybridization to Northern blots, these PCR products were subcloned into a plasmid vector (pCRII, Invitrogen, Carlsbad, Calif.) and subsequently utilized for PCR-based amplification of a32P dATP-labelled probes.
RNA was isolated from 20 million CLL cells immediately after cell purification (CT), or after 6 hours culture in media alone (6 Hr) or with addition of 10 uMol/L rolipram (Roli). Equal loading and transfer of RNA was confirmed by hybridization with an actin probe as shown.

CLL cells [1] = test: cAMP assay (RIA) in CLL cells; type: cell-based, human; conditions: two hours; used alone and combined with forskolin
Protocol: (§1) One million cells in 1 mL were treated for two hours with or without drugs. 0.8 mL of cells were pelleted by spinning at 4,000 rpm (RCF=1,310) in microcentrifuge tube. After discarding 0.7 mL, 400 uL of ethanol was added, vortexed and left on ice for five minutes. Particulate cell debris was removed by centrifugation at 14,000 rpm (RCF=16,000). The supernatant was stored at −20° C. until the day of assay, at which time it was dried in a Speedivac (Savant, Farmingdale, N.Y.) to a volume of 50 uL. After ten-fold dilution in 10 mMol/L Tris pH 8.0, 1 mMol/L EDTA, the cAMP sample was analyzed for cAMP concentration using a cAMP RIA kit (NEN, Boston, Mass.) according to the manufacturer's instructions using the nonacetylated protocol.
In this example, it was determined what role type 1 and type 4 PDE activity might play in the catabolism of cyclic nucleotides in CLL cells. cAMP levels were measured after culturing leukemic cells with varying concentrations of PDE-isoform specific inhibitors, either alone or in conjunction with an activator of adenylate cyclase, the diterpene forskolin. Specifically, one million freshly isolated cells were incubated with the indicated drugs for two hours prior to analysis of cAMP in cell lysates using a radioimmunoassay. The results are shown in FIG. 4 and the data are the mean of three individually assayed culture wells.

CD19+ B cells = test: cAMP assay (RIA) in CD19+ B cells; type: cell-based, human; conditions: at two hours; unstimulated or anti-Ig stimulated
Protocol: as §1
(§2) For each of the four cell populations, two or six hours after drug treatment, cAMP levels were higher for rolipram/forskolin-treated cells than for forskolin only treated cells (test: one tailed significance level<0.05) (FIG. 9).

CLL cells [2] = test: Hoechst 33342 apoptosis assay, CLL cells; type: cell-based, human; conditions: for percentage of apoptotic cells: 10 uMol/L rolipram
Protocol: (§3) Hoechst 33342 was dissolved in water and frozen at 33 mg/mL at −20° C. One million cells/well were incubated in duplicate or triplicate in 48 well tissue culture plates (Costar, Cambridge, Mass.) with or without drug treatment for […] in 1 mL of culture media. Cells were transferred to 12×75 mm polystyrene Falcon® 2054 FACS tubes (Becton Dickinson Labware, Lincoln Park, N.J.) and incubated for ten minutes at 37° C. with Hoechst 33342 at a final concentration of […]. 23 Cells were stored on ice until analysis on a FACS Vantage flow cytometer (Becton Dickinson, San Jose, Calif.). Hoechst 33342 dye fluorescence was excited with a UV laser and detected using a 450 bandpass filter; Data was analyzed using Cellquest software (Becton Dickinson, San Jose, Calif.).
As a more quantitative analysis of CLL apoptosis, we utilized a flow cytometry method in which apoptotic cells are distinguished both by their reduced size (FSC) and their increased uptake of the lipophilic UV fluorescent dye Hoechst 33342 (FL-4) when the intact, heterogeneous cell population is incubated with a low concentration of the dye (0.25 ug/mL) for 10 minutes at 37° C. Specifically, cells were cultured for 72 hours in media (1), 1uMol/L rolipram (2), 40 uMol/L forskolin (3) or a combination of the two drugs (FIG. 6). The abcissa reflects forward light scatter and the ordinate Hoechst 33342 fluorescence. Apoptotic cells are characterized by reduced forward light scatter and increased Hoechst 33342 fluorescence. Previous reports of cAMP induced lymphoid apoptosis have noted that this form of programmed cell death may take 48 to 72 hours to develop maximally. […] CLL cells were cultured for 72 hours in one mL of media with the indicated concentration of rolipram with (black bars) or without (stippled bars) the addition of 40 uMol/L forskolin.

[3] = test system: magnetic bead purified CD19+B cells; test: Hoechst 33342 apoptosis assay, CD19+ B cells; type: cell-based, human
Protocol: as §3
This example describes the effect of PDE4 inhibition on normal B and T cells. […] Specifically, one million WMC were cultured with the indicated concentration of rolipram with or without the addition of 40 uMol/L forskolin for 72 hours in the presence of 2 units/mL IL-2. Apoptosis was determined by Hoechst 33342 flow cytometry. […] In contrast, magnetic bead purified CD19+B cells were sensitive to rolipram, although the increment in apoptosis observed was superimposed on a high basal apoptosis rate that has previously been reported in cultured human B cells. Given that crosslinking of cell surface immunoglobulin on resting B cells has been reported to reduce basal and forskolin-induced apoptosis in culture, we also stimulated CD19+ cells with a polyclonal Fab′2 anti-IgM/IgG reagent 30 minutes prior to the addition of the phosphodiesterase inhibitor.

[4] = test system: CLL cells, resting or anti-Ig activated CD19+ cells, IL-2 supplemented WMC; test: cAMP time course in four cell populations; type: cell-based, human; conditions: 24 hours; any of the four cell populations
Protocol: as §1, with “One million cells in 1 mL were treated for two hours with or without drugs.” left out
as §2

[5] = cited from earlier work

Q: With `COc1ccc(C2CNC(=O)C2)cc1OC1CCCC1` (racemic) [rolipram, 4-(3-cyclopentyloxy-4-methoxyphenyl)-2-pyrrolidone] as the compound, how does the PDE-4B transcript levels (PDE-4B transcript) read?
A: significantly reduced this fall in PDE-4B transcript levels

Q: And the “CLL cAMP levels” value (CLL cells [1])?
A: augmented CLL cAMP levels

Q: What about the “cAMP levels in CD19+ B cells” value (CD19+ B cells) of the same compound?
A: raised cAMP levels equivalently

Q: What about the “absolute increase in apoptotic cells” value (CLL cells [2]; 10 uMol/L, four relatively rolipram-resistant patient samples (Pt #'s 11-14)) of the same compound?
A: less than 33%

Q: What about the CLL cell apoptosis (CLL cells [2]; 72 hour culture, rolipram dose range with or without 40 uMol/L forskolin) of the same compound?
A: dose dependent increase in CLL cell apoptosis

Q: And the “apoptosis of anti-Ig stimulated CLL cells” value (CLL cells [2]; CLL cells derived from two patients)?
A: failed to protect these cells from rolipram-induced apoptosis

Q: What about the “percentage of apoptotic cells” value (CLL cells [2]; Pt. 1, Rai III, basal 47, 40 uMol/L forskolin or 100 uMol/L dbcAMP, three days) of the same compound?
A: 80%

Q: What about the “percentage of apoptotic cells” value (CLL cells [2]; Pt. 2, Rai IV, Drug Res. Ch, Cy, basal 18 ± 2, 40 uMol/L forskolin or 100 uMol/L dbcAMP, three days) of the same compound?
A: 79%

Q: What about the “percentage of apoptotic cells” value (CLL cells [2]; Pt. 3, Rai IV, Drug Res. Ch, CH, basal 38, 40 uMol/L forskolin or 100 uMol/L dbcAMP, three days) of the same compound?
A: 77 ± 1%

Q: And the “percentage of apoptotic cells” value (CLL cells [2]; Pt. 4, Rai I, basal 31 ± 2, 40 uMol/L forskolin or 100 uMol/L dbcAMP, three days)?
A: 76 ± 2%

Q: What about the “percentage of apoptotic cells” value (CLL cells [2]; Pt. 5, Rai IV, basal 18, 40 uMol/L forskolin or 100 uMol/L dbcAMP, three days) of the same compound?
A: 57 ± 2%

Q: What about the “percentage of apoptotic cells” value (CLL cells [2]; Pt. 6, Rai IV, Drug Res. Ch, basal 17 ± 4, 40 uMol/L forskolin or 100 uMol/L dbcAMP, three days) of the same compound?
A: 54 ± 1%

Q: What about the “percentage of apoptotic cells” value (CLL cells [2]; Pt. 7, Rai II, Drug Res. Ch, basal 13 ± 2, 40 uMol/L forskolin or 100 uMol/L dbcAMP, three days) of the same compound?
A: 47 ± 2%

Q: And the “percentage of apoptotic cells” value (CLL cells [2]; Pt. 8, Rai 0, basal 5, 40 uMol/L forskolin, three days)?
A: 46%

Q: What about the “percentage of apoptotic cells” value (CLL cells [2]; Pt. 9, Rai IV, Drug Res. Ch, Cy, Fl, basal 4 ± 0, 40 uMol/L forskolin or 100 uMol/L dbcAMP, three days) of the same compound?
A: 44 ± 3%

Q: And the “percentage of apoptotic cells” value (CLL cells [2]; Pt. 10, Rai I, basal 11, 40 uMol/L forskolin or 100 uMol/L dbcAMP, three days)?
A: 44 ± 0%

Q: What about the “percentage of apoptotic cells” value (CLL cells [2]; Pt. 11, Rai 0, basal 24 ± 4, 40 uMol/L forskolin or 100 uMol/L dbcAMP, three days) of the same compound?
A: 40 ± 0%

Q: What about the “percentage of apoptotic cells” value (CLL cells [2]; Pt. 12, Rai IV, Drug Res. Ch, Fl, 2C, basal 0 ± 4, 40 uMol/L forskolin or 100 uMol/L dbcAMP, three days) of the same compound?
A: 38 ± 1%

Q: What about the “percentage of apoptotic cells” value (CLL cells [2]; Pt. 13, Rai 0, basal 2 ± 0, 40 uMol/L forskolin or 100 uMol/L dbcAMP, three days) of the same compound?
A: 34 ± 0%

Q: What about the “percentage of apoptotic cells” value (CLL cells [2]; Pt. 14 (significant population of cells with prolymphocyte morphology), Rai I, basal 13 ± 0, 40 uMol/L forskolin or 100 uMol/L dbcAMP, three days) of the same compound?
A: 14 ± 0%

Q: What about the “effect on doxorubicin-induced apoptosis” value (CLL cells [2]; rolipram 10 uMol/L, doxorubicin 0.03 or 0.1 uMol/L, three days) of the same compound?
A: augments doxorubicin-induced apoptosis

Q: And the “effect on fludarabine-induced apoptosis” value (CLL cells [2]; rolipram 10 uMol/L, fludarabine 0.3-3.0 uMol/L, three days)?
A: augments fludarabine-induced apoptosis

Q: And the “effect on chlorambucil-induced apoptosis” value (CLL cells [2]; rolipram 10 uMol/L, three days)?
A: augments chlorambucil-induced apoptosis

Q: What about the “apoptosis of anti-Ig stimulated CD19+ B cells” value ([3]; polyclonal Fab'2 anti-IgM/IgG 30 minutes prior to inhibitor) of the same compound?
A: markedly reduced both basal apoptosis and the sensitivity of the B cells to rolipram

Q: And the “apoptosis of CD19+ B cells” value ([3]; unstimulated, high basal apoptosis rate)?
A: sensitive

Q: And the “augmentation of forskolin-stimulated cAMP accumulation” value [4]?
A: no longer significant rolipram-induced augmentation

Q: And the emesis ([5]; humans, higher dosages)?
A: emetogenic

Q: What about the tolerability ([5]; studied as an antidepressant in humans) of the same compound?
A: well tolerated
